Counter-ions that a name gives are not always drawn.

The subject of the first assay is pentagastrin stimulated gastric acid secretion. Briefly: Rat lumen perfused stomach (pentagastrin stimulated gastric acid secretion). The format is in vivo. The following applies: iv, i.v. administration, 10 μmole/kg, read-out: Rat G.S. % inhibition @ 10 μmole/kg. From the text: Using a modification of the procedure described by Ghosh and Schild (Br. J. Pharmacology, 13, 54, 1958), the compounds of the following Examples were found on i.v. administration at a concentration of 10 μmole/kg to cause an inhibition of pentagastrin stimulated gastric acid secretion as indicated in the following Table.
Consider `Cc1ccccc1CNc1nc(N(C)c2ccccc2)c2ccccc2n1` [Example 31, 2-(2-methvlbenzylamino)-4-(N-methylphenylamino)quinazoline hydrochloride], for which the inhibition in vivo at 10 µmol/kg came out at 8%.

In the case of `COc1cccc2c(Nc3ccccc3C)nc(N(C)c3ccccc3)nc12` [Example 21, 2-(N-methylphenylamino)-4-(2-methylphenylamino)-8-methoxyquinazoline], the inhibition in vivo at 10 µmol/kg stood at 37%. For `Cc1ccccc1Nc1nc(N2CCCC2)nc2ccccc12` [Example 8, 2-pyrrolidino-4-(2-methylphenylamino)quinazoline], the inhibition in vivo at 10 µmol/kg came out at 17%. On to `COc1cccc2c(N(C)c3ccccc3)nc(Nc3ccccc3C)nc12` [Example 24, 4-(N-methylphenylamino)-2-(2-methylphenylamino)-8-methoxyquinazoline], for which the inhibition in vivo at 10 µmol/kg was 97%. For the molecule `COc1cccc2c(Nc3ccccc3C)nc(N(C)C)nc12` [Example 5, 2-dimethylamino-8-methoxy-4-(2-methylphenylamino)quinazoline], the inhibition in vivo at 10 µmol/kg was determined as 37%.

`Cc1ccccc1CNc1nc(N)nc2ccccc12` [Example 25, 2-amino-4-(2-methylbenzylamino)quinazoline]: the inhibition in vivo at 10 µmol/kg is 24%.

In the case of `CCc1ccc2nc(N)nc(Nc3ccccc3C)c2c1` [Example 11, 2-amino-4-(2-methylphenylamino)-6-ethylquinazoline], the inhibition in vivo at 10 µmol/kg is 28%. The same measure, in the same setting: next, `CN(c1ccccc1)c1nc(Nc2ccccc2)nc2ccccc12` [Example 27, 2-phenylamino-4-(N-methylphenylamino)quinazoline hydrochloride]: 71%. Regarding `COc1ccccc1Nc1nc(N)nc2c(OC)cccc12` [Example 18, 2-amino-8-methoxy-4-(2-methoxyphenylamino)quinazoline], the inhibition in vivo at 10 µmol/kg came to 12%. On the same count and under the same terms, next, `COc1cccc2c(NCc3ccccc3)nc(N)nc12` [Example 2, 2-amino-8-methoxy-4-benzylaminoquinazoline]: 25%; `COc1cccc2c(N(C)c3ccccc3)nc(N)nc12` [Example 29, 2-amino-4-(N-methylphenylamino)-8-methoxyquinazoline hydrochloride]: 13%. On the same count and under the same terms, next, `COc1cccc2c(NCc3ccccc3C)nc(N)nc12` [Example 4, 2-amino-8-methoxy-4-(2-methylbenzylamino)quinazoline]: 37%; `COc1cccc2c(Nc3ccccc3C)nc(N3CCCC3)nc12` [Example 15, 2-pyrrolidino-8-methoxy-4-(2-methylphenylamino)quinazoline]: 31%. Same read-out and setting: next, `Cc1ccccc1Nc1nc(N)nc2ccccc12` [Example 7, 2-amino-4-(2-methylphenylamino)quinazoline]: 20%; `CN(c1ccccc1)c1nc(N(C)c2ccccc2)c2ccccc2n1` [Example 20, 2,4-Bis-(N-methylphenylamino)quinazoline hydrochloride]: 72%.

On to `Cc1ccccc1Nc1nc(N)nc2c(C)cccc12` [Example 6, 2-amino-8-methyl-4-(2-methylphenylamino)quinazoline], for which the inhibition in vivo at 10 µmol/kg was found to be 48%.

In the case of `Cc1ccccc1Nc1nc(N(C)c2ccccc2)nc2ccccc12` [Example 22, 2-(N-methylphenylamino)-4-(2-methylphenylamino)quinazoline hydrochloride], the inhibition in vivo at 10 µmol/kg is 27%. Turning to `Cc1ccccc1Nc1nc(N(C)c2ccccc2)c2ccccc2n1` [Example 26, 2-(2-methylphenylamino)-4-(N-methylphenylamino)quinazoline hydrochloride], the inhibition in vivo at 10 µmol/kg stood at 79%.

With `CNc1nc(Nc2ccccc2C)c2cccc(OC)c2n1` [Example 13, 2-methylamino-8-methoxy-4-(2-methylphenylamino)quinazoline], the inhibition in vivo at 10 µmol/kg is 20%. Same read-out and setting: next, `Cc1cc(O)ccc1Nc1nc(N(C)c2ccccc2)c2ccccc2n1` [Example 30, 2-(4-hydroxy-2-methylphenyl)amino1-4-(N-methylphenylamino) quinazoline hydrochloride]: 23%; `COc1ccc(Nc2nc(N)nc3c(OC)cccc23)c(C)c1` [Example 3, 2-amino-8-methoxy-4-(2-methyl-4-methoxyphenylamino)quinazoline]: 16%. The same measure, in the same setting: the value for `Cc1cc(F)ccc1Nc1nc(N(C)c2ccccc2)c2ccccc2n1` [Example 32, 2-(2-methyl-4-fluorophenyl)amino]-4-(N-methylphenylamino)quinazoline hydrochloride] was 96%; that for `COc1cccc2c(Nc3ccccc3C)nc(N)nc12` [Example 1, 2-amino-8-methoxy-4-(2-methylphenylamino)quinazoline] was 60%. Consider `Cc1ccccc1Nc1nc(NCCc2ccccc2)nc2ccccc12` [Example 16, 2-phenylethylamino-4-(2-methylphenylamino)quinazoline], for which the inhibition in vivo at 10 µmol/kg turned out to be 31%.

A further assay relates to isolated rat osteoclasts. Put plainly: Bone resorption by isolated rat osteoclasts on cortical bone slices. The format is cell-based. The following applies: Osteoclast, 10 μM, 18 hours, control = 100 ± 27, Mean ± SEM, n = 12. Here is the method: Bone resorption was measured by the actions of isolated rat osteoclasts on cortical bone slices (Zaidi et al Quarterly Journal of Experimental Physiology 1988 73:471-485). Newborn Wistar rats were killed by decapitation and their femora and tibiae removed. Osteoclasts were mechanically disaggregated by curetting the bones into medium followed by agitation with a pipette. Osteoclasts were separated from other cells by sedimentation onto bone slices (15 minutes, 37°) after which the slices were removed and gently washed. The bone slices were then incubated in the presence of test compounds (37°, 10% humidified CO2, 18 hours) and fixed with glutaraldehyde. The degree of bone resorption was then assessed by the area of erosions produced by the osteoclasts using scanning electron microscopy. Data were meaned from measurements of 6 bone slices in each of two independent experiments.
Test compounds were dissolved in ethanol which was also added to control incubations (1%) in the absence of compound.
Consider `Cc1cc(F)ccc1Nc1nc(N(C)c2ccccc2)c2cc(O)ccc2n1` [Example 56, 4-(N-methylphenylamino)-2-[(2-methyl-4-fluorophenyl)amino]-6-hydroxyquinazoline hydrochloride], for which the activity at 10 µM came to 7 ± 4%.

The assay is the same for the next values; noted with them: Osteoclast, 100 μM, 18 hours, control = 100 ± 27, Mean ± SEM, n = 12.
As to `Cc1cc(F)ccc1Nc1nc(N(C)c2ccccc2)c2cc(O)ccc2n1` [Example 56, 4-(N-methylphenylamino)-2-[(2-methyl-4-fluorophenyl)amino]-6-hydroxyquinazoline hydrochloride], the activity at 100 µM stood at 7%.
